Bounds are passed on as bounds.

In general, IC50 refers to the midpoint of a concentration-inhibition curve.

This assay deals with T1, CRTH2 (Homo sapiens, UniProt Q9Y5Y4).
T1 construct: expressed in transfected cells; host or cells: CHO cells
T1 sequence (Q9Y5Y4 1-395): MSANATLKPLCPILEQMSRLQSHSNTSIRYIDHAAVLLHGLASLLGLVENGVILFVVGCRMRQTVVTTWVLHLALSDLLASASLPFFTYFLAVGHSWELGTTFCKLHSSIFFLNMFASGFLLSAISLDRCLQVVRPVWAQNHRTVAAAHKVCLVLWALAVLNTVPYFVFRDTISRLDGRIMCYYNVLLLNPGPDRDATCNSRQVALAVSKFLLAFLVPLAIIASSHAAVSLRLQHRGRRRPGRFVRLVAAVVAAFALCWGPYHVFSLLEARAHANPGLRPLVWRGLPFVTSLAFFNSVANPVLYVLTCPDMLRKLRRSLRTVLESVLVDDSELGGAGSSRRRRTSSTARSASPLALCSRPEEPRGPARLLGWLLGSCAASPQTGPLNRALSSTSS
Kind of assay: FRET based competitive immunoassay (cAMP) in CRTH2 expressing CHO cells. It is filed as cell-based. The following applies: CRTH2 expressing CHO cells incubated with forskolin and PGD2; Eu3+ cryptate-labeled anti-cAMP and d2-labeled cAMP. As to the method: FRET Assay: To evaluate potency compounds were tested in a FRET based competitive immunoassay in which CRTH2 expressing CHO cells were incubated in the presence of forskolin and PGD2 along with Eu3+ cryptate-labeled anti-cAMP and d2-labeled cAMP.
Compound `Cc1c(-c2nn(Cc3ccccc3)c(=O)c3ccccc23)c2cc(S(C)(=O)=O)ccc2n1CC(=O)O` [Example 215, 2-(3-(3-benzyl-4-oxo-3,4-dihydrophthalazin-1-yl)-2-methyl-5-(methylsulfonyl)-1H-indol-1-yl)acetic acid] gave an IC50 of 27 nM.

In the case of `Cc1c(-c2ccc(=O)n(Cc3cccc(F)c3C(F)(F)F)n2)c2cc(Cl)ccc2n1CC(=O)O` [Example 143, 2-(5-chloro-3-(1-(3-fluoro-2-(trifluoromethyl)benzyl)-6-oxo-1,6-dihydro-pyridazin-3-yl)-2-methyl-1H-indol-1-yl)acetic acid], the IC50 amounted to 55 nM.

As for `Cc1ccc2c(c1)c(-c1ccc(=O)n(CC(F)(F)F)c1)c(C)n2CC(=O)O` [Example 304, 2-(2,5-dimethyl-3-(6-oxo-1-(2,2,2-trifluoroethyl)-1,6-dihydropyridin-3-yl)-1H-indol-1-yl)acetic acid], the 50% inhibitory concentration (IC50) was 1180 nM.

`Cc1c(Cc2cn(Cc3ccccc3)c(=O)c3ccccc23)c2cc(Cl)ccc2n1CC(=O)O` [Example 87, 2-(3-((2-benzyl-1-oxo-1,2-dihydroisoquinolin-4-yl)methyl)-5-chloro-2-methyl-1H-indol-1-yl)acetic acid] registered an IC50 of 210 nM.

For `Cc1c(-c2nn(CCOc3ccc(Cl)cc3)c(=O)c3ccccc23)c2cc(F)ccc2n1CC(=O)O` [Example 210, 2-(3-(3-(2-(4-chlorophenoxy)ethyl)-4-oxo-3,4-dihydrophthalazin-1-yl)-5-fluoro-2-methyl-1H-indol-1-yl)acetic acid], the half-maximal inhibitory concentration (IC50) came out at 2 nM.

With `Cc1c(-c2ccc(=O)n(Cc3ccc(C(F)(F)F)cc3)n2)c2cc(Cl)ccc2n1CC(=O)O` [Example 213, 2-(5-chloro-2-methyl-3-(6-oxo-1-(4-(trifluoromethyl)benzyl)-1,6-dihydropyridazin-3-yl)-1H-indol-1-yl)acetic acid], the IC50 was 19 nM.

Regarding `Cc1c(-c2nn(Cc3ccccc3C(F)(F)F)c(=O)c3ccccc23)c2cc(Cl)ccc2n1CC(=O)O` [Example 199, 2-(5-chloro-2-methyl-3-(4-oxo-3-(2-(trifluoromethyl)benzyl)-3,4-dihydrophthalazin-1-yl)-1H-indol-1-yl)acetic acid], the IC50 was 19 nM.

The compound `Cc1c(-c2ccc(=O)n(Cc3ccccc3)c2)c2cc(F)ccc2n1CC(=O)O` [Example 265, 2-(3-(1-benzyl-6-oxo-1,6-dihydropyridin-3-yl)-5-fluoro-2-methyl-1H-indol-1-yl)acetic acid] displayed an IC50 of 5 nM.

`Cc1c(Cc2ccc(=O)n(Cc3ccc(F)cc3)c2)c2ccccc2n1CC(=O)O` [Example 40, 2-(3-((1-(4-Fluorobenzyl)-6-oxo-1,6-dihydropyridin-3-yl)methyl)-2-methyl-1H-indol-1-yl)acetic acid] registered an IC50 of 30 nM.

With `Cc1c(-c2nn(-c3cccc(C(F)(F)F)c3)c(=O)c3ccccc23)c2cc(F)ccc2n1CC(=O)O` [Example 207, 2-(5-fluoro-2-methyl-3-(4-oxo-3-(3-(trifluoromethyl)phenyl)-3,4-dihydrophthalazin-1-yl)-1H-indol-1-yl)acetic acid], the IC50 was 588 nM.

`Cc1c(Cc2ccc(=O)n(Cc3cc(F)cc(F)c3)c2)c2cc(F)ccc2n1CC(=O)O` [Example 36, 2-(3-((1-(3,5-Difluorobenzyl)-6-oxo-1,6-dihydropyridin-3-yl)methyl)-5-fluoro-2-methyl-1H-indol-1-yl)acetic acid] yielded an IC50 of 2 nM.

In the case of `Cc1c(Cc2ccc(=O)n(Cc3cccc(F)c3)c2)c2cc(F)ccc2n1CC(=O)O` [Example 39, 2-(5-Fluoro-3-((1-(3-fluorobenzyl)-6-oxo-1,6-dihydropyridin-3-yl)methyl)-2-methyl-1H-indol-1-yl)acetic acid], the IC50 came out at 4 nM.

`Cc1c(-c2nn(CCCC(F)(F)F)c(=O)c3ccccc23)c2cc(F)ccc2n1CC(=O)O` [Example 125, 2-(5-fluoro-2-methyl-3-(4-oxo-3-(4,4,4-trifluorobutyl)-3,4-dihydro-phthalazin-1-yl)-1H-indol-1-yl)acetic acid] registered an IC50 of 4 nM.

`Cc1c(-c2ccc(=O)n(CCC(F)(F)F)n2)c2cc(F)ccc2n1CC(=O)O` [Example 164, 2-(5-fluoro-2-methyl-3-(6-oxo-1-(3,3,3-trifluoropropyl)-1,6-dihydro-pyridazin-3-yl)-1H-indol-1-yl)acetic acid]: the IC50 turned out to be 409 nM.

With `Cc1c(-c2nn(Cc3ccc(C(F)(F)F)c(F)c3)c(=O)c3ccccc23)c2cc(Cl)ccc2n1CC(=O)O` [Example 3, 2-(5-Chloro-3-(3-(3-fluoro-4-(trifluoromethyl)benzyl)-4-oxo-3,4-dihydrophthalazin-1-yl)-2-methyl-1H-indol-1-yl)acetic acid], the IC50 was found to be 58 nM.

`Cc1c(-c2ccc(=O)n(Cc3ccccc3)n2)c2ccccc2n1CC(=O)O` [Example 180, 2-(3-(1-benzyl-6-oxo-1,6-dihydropyridazin-3-yl)-2-methyl-1H-indol-1-yl)-acetic acid]: the IC50 came out at 96 nM.

Take `Cc1c(-c2nn(Cc3ccc(C(F)(F)F)c(F)c3)c(=O)c3ccccc23)c2cc(F)ccc2n1CC(=O)O` [Example 6, 2-(5-Fluoro-3-(3-(3-fluoro-4-(trifluoromethyl)benzyl)-4-oxo-3,4-dihydrophthalazin-1-yl)-2-methyl-1H-indol-1-yl)acetic acid]: the IC50 came to 23 nM.

`Cc1c(-c2ccc(=O)n(Cc3cccc(F)c3F)c2)c2ccccc2n1CC(=O)O` [Example 284, 2-(3-(1-(2,3-difluorobenzyl)-6-oxo-1,6-dihydropyridin-3-yl)-2-methyl-1H-indol-1-yl)acetic acid] returned an IC50 of 15 nM.

For the compound `Cc1c(Cc2ccc(=O)n(Cc3cccc(F)c3)n2)c2ccccc2n1CC(=O)O` [Example 75, 2-(3-((1-(3-fluorobenzyl)-6-oxo-1,6-dihydropyridazin-3-yl)methyl)-2-methyl-1H-indol-1-yl)acetic acid], the IC50 amounted to 101 nM.

For `Cc1c(-c2ccc(=O)n(Cc3ccc(F)cc3)c2)c2cc(F)ccc2n1CC(=O)O` [Example 267, 2-(5-fluoro-3-(1-(4-fluorobenzyl)-6-oxo-1,6-dihydropyridin-3-yl)-2-methyl-1H-indol-1-yl)acetic acid], the IC50 worked out at 6 nM.

As to `Cc1c(-c2ccc(=O)n(CC(F)(F)F)n2)c2cc(F)ccc2n1CC(=O)O` [Example 162, 2-(5-Fluoro-2-methyl-3-(6-oxo-1-(2,2,2-trifluoroethyl)-1,6-dihydropyridazin-3-yl)-1H-indol-1-yl)acetic acid], the IC50 was 462 nM.

Compound `Cc1c(-c2ccc(=O)n(Cc3ccccc3F)n2)c2ccccc2n1CC(=O)O` [Example 190, 2-(3-(1-(2-fluorobenzyl)-6-oxo-1,6-dihydropyridazin-3-yl)-2-methyl-1H-indol-1-yl)acetic acid] registered an IC50 of 867 nM.

Take `Cc1c(-c2ccc(=O)n(Cc3ccc(C(C)C)cc3)n2)c2cc(Cl)ccc2n1CC(=O)O` [Example 147, 2-(5-chloro-3-(1-(4-isopropylbenzyl)-6-oxo-1,6-dihydropyridazin-3-yl)-2-methyl-1H-indol-1-yl)acetic acid]: the IC50 came out at 334 nM.

Compound `Cc1c(Cc2cn(Cc3ccccc3)c(=O)c3ccccc23)c2ccccc2n1CC(=O)O` [Example 86, 2-(3-((2-benzyl-1-oxo-1,2-dihydroisoquinolin-4-yl)methyl)-2-methyl-1H-indol-1-yl)acetic acid] gave an IC50 of 197 nM.

For `Cc1c(Cc2ccc(=O)n(Cc3ccncc3)n2)c2cc(F)ccc2n1CC(=O)O` [Example 194, 2-(5-fluoro-2-methyl-3-((6-oxo-1-(pyridin-4-ylmethyl)-1,6-dihydro-pyridazin-3-yl)methyl)-1H-indol-1-yl)acetic acid], the IC50 came out at 98 nM.

In turn, `Cc1c(-c2ccc(=O)n(Cc3ccccc3)c2)c2cc(F)ccc2n1CC(=O)NS(C)(=O)=O` [Example 313, 2-(3-(1-Benzyl-6-oxo-1,6-dihydropyridin-3-yl)-5-fluoro-2-methyl-1H-indol-1-yl)-N-(methyl-sulfonyl)acetamide] gave an IC50 of 32 nM.

The compound `Cc1c(-c2nn(Cc3ccc(S(C)(=O)=O)cc3)c(=O)c3ccccc23)c2ccccc2n1CC(=O)O` [Example 168, 2-(2-methyl-3-(3-(4-(methylsulfonyl)benzyl)-4-oxo-3,4-dihydrophthalazin-1-yl)-1H-indol-1-yl)acetic acid] displayed an IC50 of 62 nM.

With `Cc1c(-c2nn(Cc3ccccc3)c(=O)c3ccccc23)c2ccccc2n1CC(=O)NS(C)(=O)=O` [Example 50, 2-(3-(3-Benzyl-4-oxo-3,4-dihydrophthalazin-1-yl)-2-methyl-1H-indol-1-yl)-N-(methylsulfonyl)acetamide], the IC50 was > 1500 nM.

On to `Cc1c(Cc2ccc(=O)n(Cc3ccc(F)c(F)c3)c2)c2cc(F)ccc2n1CC(=O)O` [Example 33, 2-(3-((1-(3,4-difluorobenzyl)-6-oxo-1,6-dihydropyridin-3-yl)methyl)-5-fluoro-2-methyl-1H-indol-1-yl)acetic acid], for which the IC50 was determined as 11 nM.

Regarding `Cc1c(-c2nn(Cc3ccc(S(C)(=O)=O)cc3)c(=O)c3ccccc23)c2cc(F)ccc2n1CC(=O)O` [Example 65, 2-(5-fluoro-2-methyl-3-(3-(4-(methylsulfonyl)benzyl)-4-oxo-3,4-dihydro-phthalazin-1-yl)-1H-indol-1-yl)acetic acid], the IC50 was 18 nM.
